This assay relates to HCV 1b_Huh-Luc/Neo-ET cell line persistently expressing a bicistronic genotype 1b replicon in Huh 7 cells. Description: HCV replicon assay (luciferase readout). The format is cell-based. The following applies: Hepatitis C virus, Huh-7, 72 h, read-out: Inhibition of HCV genotype 1b. The gist of the method: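 EC50, determined repeatedly, comes from a four-parameter logistic fit of luciferase signal as percent of untreated control. Readout follows 72 h compound exposure, in triplicate, of the HCV 1b_Huh-Luc/Neo-ET replicon line.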

In the case of `O=C(N[C@@H](C(=O)N1CCC[C@H]1c1ncc(C#Cc2ccc(-c3ccc(-c4cnc([C@@H]5CCCN5C(=O)[C@H](NC(=O)N5CC[C@H](O)C5)c5ccccc5)[nH]4)cc3)cc2)[nH]1)c1ccccc1)N1CC[C@H](O)C1` [Compound 762], the EC50 was less than 1 nM. In the case of `COC(=O)N[C@@H](C(=O)N1CCC[C@H]1c1ncc(-c2ccc(C#Cc3ccc(C(=O)NC[C@@H]4CCCN4C(=O)[C@H](NC(=O)N4CCN(C)CC4)c4ccccc4)cc3)cc2)[nH]1)c1ccccc1` [Compound 236] it was less than 1 nM; in that of `COC(=O)N[C@H](C(=O)N1CCC[C@H]1c1ncc(-c2ccc(C#Cc3ccc(-c4cnc([C@H](C)NC(=O)[C@@H](C(C)C)N(C)C)[nH]4)cc3)cc2)[nH]1)C(C)C` [Compound 982], 10 to 999 nM; in that of `COC(=O)NC(C(=O)N1CCC[C@H]1c1ncc(-c2ccc(C#Cc3ccc(-c4cnc([C@@H]5CCCN5C(=O)[C@H](NC(=O)OC)[C@H](C)O)[nH]4)cc3)cc2)[nH]1)[C@H](C)O` (some centres unmarked) [Compound 978], 10 to 999 nM.

Take `COC(=O)N[C@H](C(=O)N1CSC[C@H]1c1ncc(-c2ccc(C#Cc3ccc4nc([C@@H]5CCCN5C(=O)[C@@H](NC(=O)OC)C(C)C)[nH]c4c3)cc2)[nH]1)C(C)C` [Compound 1026]: the EC50 is less than 1 nM. To `COC(=O)N[C@H](C(=O)N1CCC[C@H]1c1nc2ccc(C#Cc3ccc(-c4cnc([C@@H]5CCCN5C(=O)[C@H](C(C)C)N(C)C)[nH]4)cc3)cc2[nH]1)C(C)C` [Compound 866] belongs less than 1 nM; to `COC(=O)N[C@@H](Cc1cnc[nH]1)C(=O)N1CCC[C@H]1c1ncc(-c2ccc(C#Cc3ccc4nc([C@@H]5CCCN5C(=O)[C@H](Cc5cnc[nH]5)NC(=O)OC)[nH]c4c3)cc2)[nH]1` [Compound 1048], 1 to 9.9 nM; to `CC(C)[C@@H](NC(=O)OC(C)(C)C)C(=O)N1CCC[C@H]1c1ncc(C#Cc2ccc(-c3cnc([C@@H]4CCCN4C(=O)[C@H](NC(=O)OC(C)(C)C)C(C)C)[nH]3)cc2)[nH]1` [Compound 105], 10 to 999 nM. `O=S(=O)(Cc1ccccc1)N1CCC[C@H]1c1ncc(-c2ccc(C#Cc3ccc4nc([C@@H]5CCCN5S(=O)(=O)Cc5ccccc5)[nH]c4c3)cc2)[nH]1` [Compound 1042]: the EC50 is greater than 1000 nM. To `COC(=O)N[C@H](C(=O)N1CCC[C@H]1c1ncc(-c2ccc(C#Cc3ccc(-c4cnc([C@@H]5CCCN5C(=O)[C@H](NC(=O)N5CCN(C)CC5)c5ccccc5)[nH]4)cc3)cc2)[nH]1)C(C)C` [Compound 989] belongs less than 1 nM; to `O=C(N[C@@H](C(=O)N1CCC[C@H]1c1ncc(-c2ccc(C#Cc3ccc(-c4cnc([C@@H]5CCCN5C(=O)[C@H](NC(=O)N5CCOCC5)c5ccccc5)[nH]4)cc3)cc2)[nH]1)c1ccccc1)N1CCOCC1` [Compound 248], less than 1 nM; to `COC(=O)N[C@@H](C(=O)N1CCC[C@H]1c1ncc(-c2ccc(C#Cc3ccc(-c4cnc([C@@H]5CCCN5C(=O)[C@H](NC(=O)[C@H]5CCCO5)c5ccccc5)[nH]4)cc3)cc2)[nH]1)c1ccccc1` [Compound 201], less than 1 nM. To `COC(=O)N[C@@H](C(=O)N1CCC[C@H]1c1ncc(-c2ccc(C#Cc3ccc(-c4cnc([C@@H]5CCCN5C(=O)[C@H](NC(=O)OC)C(C)C)[nH]4)cc3)cc2)[nH]1)C(C)C` [Compound 292] belongs greater than 1000 nM; to `C[C@@H](NC(=O)[C@@H]1CCCN1C(=O)[C@H](NC(=O)OC(C)(C)C)c1ccccc1)c1ccc(C#Cc2cnc([C@@H]3CCCN3C(=O)[C@H](NC(=O)OC(C)(C)C)c3ccccc3)[nH]2)cc1` [Compound 129], 10 to 999 nM; to `COC(=O)N[C@H](C(=O)N1CCC[C@H]1c1ncc(-c2ccc(C#Cc3ccc(-c4cnc([C@@H]5CCCN5C(=O)[C@H](NC(=O)OC)c5ccccc5)[nH]4)cc3)cc2)[nH]1)C(C)C` [Compound 1002], less than 1 nM. To `COC(=O)N[C@@H](C(=O)N1CCC[C@H]1c1ncc(-c2ccc(C#Cc3ccc(C(=O)NC[C@@H]4CCCN4C(=O)[C@@H](c4ccccc4)N4CCCCC4)cc3)cc2)[nH]1)c1ccccc1` [Compound 233] belongs less than 1 nM; to `C[C@@H](NC(=O)[C@@H]1CCCN1C(=O)[C@H](NC(=O)C1CC1)c1ccccc1)c1ccc(C#Cc2ccc(-c3cnc([C@@H]4CCCN4C(=O)[C@H](NC(=O)C4CC4)c4ccccc4)[nH]3)cc2)cc1` [Compound 168], less than 1 nM; to `COC(=O)N[C@H](C(=O)N1CCC[C@H]1c1ncc(C#Cc2ccc(-c3ccc4nc([C@@H]5CCCN5C(=O)[C@@H](NC(=O)OC)C(C)C)[nH]c4c3)nc2)[nH]1)C(C)C` [Compound 1086], less than 1 nM.

`O=C(N[C@@H](C(=O)N1CCC[C@H]1c1ncc(C#Cc2ccc(-c3ccc(-c4cnc([C@@H]5CCCN5C(=O)[C@H](NC(=O)C5CC5)c5ccccc5)[nH]4)cc3)cc2)[nH]1)c1ccccc1)C1CC1` [Compound 760]: the EC50 was less than 1 nM. In the case of `COC(=O)N[C@@H](C(=O)N1CCC[C@H]1c1ncc(-c2ccc(C#Cc3ccc(-c4cnc([C@@H]5CCCN5C(=O)[C@H](NC(=O)[C@@H]5CCCN5C)c5ccccc5)[nH]4)cc3)cc2)[nH]1)c1ccccc1` [Compound 203] it was less than 1 nM; in that of `CC(C)(C)OC(=O)N[C@@H](C(=O)N1CCC[C@H]1c1ncc(C#Cc2ccc(-c3cnc([C@@H]4CCCN4C(=O)[C@H](NC(=O)OC(C)(C)C)c4ccccc4)[nH]3)cc2)[nH]1)c1ccccc1` [Compound 99], less than 1 nM; in that of `COC(=O)N[C@H](C(=O)N1CCC[C@H]1c1nc2ccc(C#Cc3ccc(-c4cnc([C@@H]5CCCN5C(=O)[C@H](c5ccccc5)N(C)C)[nH]4)cc3)cc2[nH]1)C(C)C` [Compound 864], less than 1 nM. To `COC(=O)N[C@@H](C(=O)N1CCC[C@H]1c1nc2ccc(C#Cc3ccc4nc([C@@H]5CCCN5C(=O)[C@H](NC(=O)OC)C(C)C)[nH]c4c3)cc2[nH]1)C(C)C` [Compound 853] belongs less than 1 nM; to `COC(=O)N[C@@H](C(=O)N1CCC[C@H]1c1ncc(-c2ccc(C#Cc3ccc(-c4cnc([C@@H]5CCCN5C(=O)[C@H](NC(=O)N5CC[C@H](O)C5)c5ccccc5)[nH]4)cc3)cc2)[nH]1)c1ccccc1` [Compound 269], less than 1 nM. In the case of `O=C(N[C@@H](C(=O)N1CCC[C@H]1c1ncc(C#Cc2ccc(C#Cc3cnc([C@@H]4CCCN4C(=O)[C@H](NC(=O)C4CC4)c4ccccc4)[nH]3)cc2)[nH]1)c1ccccc1)C1CC1` [Compound 303] it was less than 1 nM; in that of `COC(=O)N[C@@H](C(=O)N1CCC[C@H]1c1ncc(C#Cc2ccc(-c3ccc(-c4cnc([C@@H]5CCCN5C(=O)[C@@H](c5ccccc5)N5CCOCC5)[nH]4)cc3)cc2)[nH]1)c1ccccc1` [Compound 758], less than 1 nM; in that of `COC(=O)NC1(C(=O)N2CCC[C@H]2c2ncc(-c3ccc(C#Cc4ccc5nc([C@@H]6CCCN6C(=O)C6(NC(=O)OC)CC6)[nH]c5c4)cc3)[nH]2)CC1` [Compound 1043], 10 to 999 nM. `COC(=O)N[C@H](C(=O)N1CCC[C@H]1c1ncc(-c2ccc(C#Cc3ccc4c(ccc5nc([C@@H]6CCCN6C(=O)[C@@H](NC(=O)OC)C(C)C)[nH]c54)c3)cc2)[nH]1)C(C)C` [Compound 1095]: the EC50 is less than 1 nM. With `CN(C)C(=O)N[C@@H](C(=O)N1CCC[C@H]1c1cc(-c2ccc(C#Cc3ccc(-c4cnc([C@@H]5CCCN5C(=O)[C@H](NC(=O)N(C)C)c5ccccc5)[nH]4)cc3)cc2)n[nH]1)c1ccccc1` [Compound 221], the EC50 was less than 1 nM. In the case of `COC(=O)N[C@H](C(=O)N1CCC[C@H]1c1nc2c([nH]1)-c1ccc(C#Cc3ccc(-c4cnc([C@@H]5CCCN5C(=O)[C@@H](NC(=O)OC)C5CCOCC5)[nH]4)cc3)cc1CC2)C(C)C` [Compound 1091], the EC50 was less than 1 nM. In the case of `COC(=O)N[C@@H](CCC(N)=O)C(=O)N1CCC[C@H]1c1ncc(-c2ccc(C#Cc3ccc4nc([C@@H]5CCCN5C(=O)[C@H](CCC(N)=O)NC(=O)OC)[nH]c4c3)cc2)[nH]1` [Compound 1051] it was 1 to 9.9 nM. In the case of `COC(=O)N[C@H](C(=O)N[C@@H](C)c1ncc(-c2ccc(C#Cc3ccc(-c4cnc([C@H](C)NC(=O)[C@@H](NC(=O)OC)[C@@H](C)O)[nH]4)cc3)cc2)[nH]1)[C@@H](C)O` [Compound 969] it was less than 1 nM.
